Reference: PMC4071583, “Potent Cytotoxic Peptides from the Australian Marine Sponge Pipestela candelabra” (Marine Drugs, 2014)
Where two headings read alike, the source gives them in different places.

Experiments:
[1] = system: Human prostate adenocarcinoma cells (PC3); assay: Cytotoxicity assay (Alamar blue), human prostate cancer cells PC3; assay type: cell-based; settings: for IC50: Homo sapiens, read-out: IC50 PC3
Method: (§1) Human prostate adenocarcinoma cells (PC3) and human neonatal foreskin fibroblast (noncancer cells, NFF) were grown in media RPMI-1640 (Life Technologies, Grand Island, NY, USA) supplemented with 10% foetal bovine serum (FBS). Cells were grown under 5% CO2 in a humidified environment at 37°C. Fifty microlitres of media containing 500 cells were added to a 384 well microtitre plate (Perkin Elmer, Waltham, MA, USA, part number: 6007660) containing 0.2 μL of a compound. Final compound concentration range tested was 10 μM to 1 pM (final DMSO concentration of 0.4%). Each concentration in media was tested in triplicate and in two independent experiments. Cells and compounds were then incubated in 72 h at 37 °C, 5% CO2 and 80% humidity. Cell proliferation was measured with the addition of 10 μL of a 60% Alamar blue (Invitrogen, Carlsbad, CA, USA) solution in media to each well of the microtitre plate to give a final concentration of 10% Alamar blue. The plates were incubated at 37 °C, 5% CO2 and 80% humidity within 24 h. The fluorescence of each well was read at excitation 535 nm and emission 590 nm on the Perkin Elmer EnVision Multilabel Reader 2104. Eight-point concentration response curves were then analysed using non-linear regression and IC50 values determined by using GraphPad Prism 5 (GraphPad Software Inc., La Jolla, CA, USA). Paclitaxel and doxorubicin were used during each screening as positive control compounds.

[2] = system: human neonatal foreskin fibroblast (noncancer cells, NFF); assay: Cytotoxicity assay (Alamar blue), human neonatal foreskin fibroblast non-cancer cells NFF; assay type: cell-based; settings: for IC50: read-out: IC50 NFF
Method: as §1

[3] = Auto-oxidation on storage, LC/MS analysis; assay type: physicochemical; settings: dried compound stored at room temperature for a few months
Text: We noticed that the dried milnamides A (5) and E (1) changed from white powders to yellow powders when the compounds were stored at room temperature for a few months. […] As in the previous study, we are unable to determine if milnamides A (5) and E (1) are naturally occurring or produced by auto-oxidation.

[4] = set-up: method as in PMID 15547903; settings: cited from earlier work
[5] = system: murine leukemia L1210 cell line; set-up: method as in doi:10.1016/0040-4039(90)87015-R; settings: cited from earlier work
[6] = system: human xenograft cancer models; set-up: method as in PMID 19825803; settings: many human xenograft cancer models; cited from earlier work
advanced solid tumors = system: advanced solid tumors; set-up: method as in PMID 19096380; settings: cited from earlier work
[7] = PC-3, PC3 cells, 72 h incubation, Alamar blue, mean of two independent experiments in triplicate
[8] = NFF cells, 72 h incubation, Alamar blue, mean of two independent experiments in triplicate

## CC(=CC(C(C)C)N(C)C(=O)C(NC(=O)C1N(C)Cc2[nH]c3ccccc3c2C1(C)C)C(C)(C)C)C(=O)O (stereo not shown) [Compound 1, milnamide E]
[1]; PC-3, 72 h
  IC50: 34.2 nM
[2]; NFF, 72 h
  IC50: 123 nM
[3]
  milnamide D (7) or G (3) formed by auto-oxidation (LC/MS): 5%–10%

## CC(=CC(C(C)C)N(C)C(=O)C(NC(=O)C1N(C)C(=O)c2[nH]c3ccccc3c2C1(C)C)C(C)(C)C)C(=O)O (stereo not shown) [Compound 2, milnamide F]
[1]; PC-3, 72 h
  IC50: 2180 nM
[2]; NFF, 72 h
  IC50: 5650 nM

## CC(=CC(C(C)C)N(C)C(=O)C(NC(=O)C1[N+](C)=Cc2[nH]c3ccccc3c2C1(C)C)C(C)(C)C)C(=O)O (stereo not shown) [Compound 3, milnamide G]
[1]; PC-3, 72 h
  IC50: 2870 nM
[2]; NFF, read-out: % Inhibition NFF
  inhibition at 10 µM: 39%

## CNC(C(=O)NC(C(=O)N(C)C(C=C(C)C(=O)O)C(C)C)C(C)(C)C)C(C)(C)c1cn(C(O)C(=O)NC(C(=O)N(C)C(C=C(C)C(=O)O)C(C)C)C(C)(C)C)c2ccccc12 (stereo not shown) [Compound 4, hemiasterlin D]
[1]; PC-3, 72 h
  IC50: 2.2 nM
[2]; NFF, 72 h
  IC50: 8.16 nM

## C/C(=C\[C@H](C(C)C)N(C)C(=O)[C@@H](NC(=O)[C@H]1N(C)Cc2c(c3ccccc3n2C)C1(C)C)C(C)(C)C)C(=O)O [Compound 5, milnamide A]
[1]; PC-3, 72 h
  IC50: 11 nM
[1]; PC3 cells, comparator 6
  fold more potent than milnamide C (6): 3 fold
[1]; PC3 cells, comparator 7
  fold more potent than milnamide C (7): 35 fold
[2]; NFF, 72 h
  IC50: 70.6 nM
[3]
  milnamide D (7) or G (3) formed by auto-oxidation (LC/MS): 5%–10%
[4]
  auto-oxidation while standing in chloroform: auto-oxidized slowly to milamide D (7)

## C/C(=C\[C@H](C(C)C)N(C)C(=O)[C@@H](NC(=O)[C@H]1N(C)C(=O)c2c(c3ccccc3n2C)C1(C)C)C(C)(C)C)C(=O)O [Compound 6, milnamide C]
[1]; PC-3, 72 h
  IC50: 31.7 nM
[2]; NFF, 72 h
  IC50: 188 nM

## C/C(=C\[C@H](C(C)C)N(C)C(=O)[C@@H](NC(=O)[C@H]1[N+](C)=Cc2c(c3ccccc3n2C)C1(C)C)C(C)(C)C)C(=O)O [Compound 7, milnamide D]
[1]; PC-3, 72 h
  IC50: 381 nM
[2]; NFF, 72 h
  IC50: 1190 nM

## CN[C@H](C(=O)N[C@H](C(=O)N(C)[C@H](/C=C(\C)C(=O)O)C(C)C)C(C)(C)C)C(C)(C)c1cn(C)c2ccccc12 [Compound 8, hemiasterlin]
[1]; PC-3, 72 h
  IC50: 0.0484 nM
[1]; comparator 9
  fold more cytotoxic than hemiasterlin A (9): six-fold
[2]; NFF, 72 h
  IC50: 0.404 nM

## C/C1=C\[C@@H](C)C[C@@H](C)OC(=O)[C@@H](C)NC(=O)[C@H](Cc2ccc(O)c(I)c2)N(C)C(=O)CNC(=O)[C@H](C)C1 [Compound 10, geodiamolide D]
[1]; PC-3, 72 h
  IC50: 33.1 nM
[1]; PC3 cells, comparator 11
  fold more potent than geodiamolide E (11): 4 fold
[1]; PC3 cells, comparator 12
  fold more active than geodiamolide F (12): 5 fold
[5]
  IC50: 62.2 nM
[2]; NFF, 72 h
  IC50: 99.1 nM

## C/C1=C\[C@@H](C)C[C@@H](C)OC(=O)[C@@H](C)NC(=O)[C@H](Cc2ccc(O)c(Br)c2)N(C)C(=O)CNC(=O)[C@H](C)C1 [Compound 11, geodiamolide E]
[1]; PC-3, 72 h
  IC50: 118 nM
[5]
  IC50: 24.2 nM
[2]; NFF, 72 h
  IC50: 425 nM

## C/C1=C\[C@@H](C)C[C@@H](C)OC(=O)[C@@H](C)NC(=O)[C@H](Cc2ccc(O)c(Cl)c2)N(C)C(=O)CNC(=O)[C@H](C)C1 [Compound 12, geodiamolide F]
[1]; PC-3, 72 h
  IC50: 155 nM
[5]
  IC50: 11.2 nM
[2]; NFF, 72 h
  IC50: 708 nM

## C/C(=C\[C@H](C(C)C)N(C)C(=O)[C@@H](NC(=O)[C@H]1CCCCN1C(C)C)C(C)(C)C)C(=O)O [Compound E7974]
[6]
  in vivo antitumor efficacy: strong in vivo antitumor efficacy

## COc1cccc2c1C(=O)c1c(O)c3c(c(O)c1C2=O)C[C@@](O)(C(=O)CO)C[C@@H]3O[C@H]1C[C@H](N)[C@H](O)[C@H](C)O1 [Doxorubicin, doxorubicin, reference compound]
[1]; [7]
  IC50: 359 nM
[2]; [8]
  IC50: 530 nM

## CN[C@H](C(=O)N[C@H](C(=O)N(C)[C@H](/C=C(\C)C(=O)O)C(C)C)C(C)(C)C)C(C)(C)c1ccccc1 [HTI-286]
Advanced solid tumors
  common toxicities observed: neutropaenia, nausea, alopecia, and pain
Advanced solid tumors; phase II trial halted
  objective responses: no objective responses

## CC(=O)O[C@H]1C(=O)[C@@]2(C)[C@H]([C@H](OC(=O)c3ccccc3)[C@]3(O)C[C@H](OC(=O)[C@H](O)[C@@H](NC(=O)c4ccccc4)c4ccccc4)C(C)=C1C3(C)C)[C@]1(OC(C)=O)CO[C@@H]1C[C@@H]2O [Taxol, Paclitaxel, reference compound]
[1]; [7]
  IC50: 2.26 nM
[2]; [8]
  IC50: 3.94 nM
